Experimental data as given in US11807625B2, “Capsid inhibitors for the prevention of HIV” (Gilead Sciences, Inc., priority 2019, dated 2023).
Read-outs that look alike come from different tables or passages of the source.

Test: PK of compound of Formula (Ia) after single subcutaneous dose of solution formulations in beagle dogs
Format: in vivo
Details: male, beagle, dog, plasma, sc; for AUC(0-t): 6 mg/kg, mean ± SD, SC 6 mg/kg, solution V, 300 mg/mL
Description: Formulations containing the compound of Formula (Ia), or a pharmaceutically acceptable salt thereof, were prepared as solutions and optionally administered subcutaneously or intramuscularly to rats, rabbits, and/or dogs.
A solution of about 400 mg/mL of the compound of Formula (Ia) having 17.00 w/w % water, 36.40 w/w % PEG 300, 35.20 w/w % of a sodium salt of a compound of Formula (Ia), 5.00 w/w % ethanol, and 6.40 w/w % poloxamer 188 was prepared. The solution was administered subcutaneously to male beagle dogs at a dose level of about 12 mg/kg and male Wistar Han rats at a dose level of about 50 mg/kg. The pharmacokinetic profiles were determined, and the results for dogs are summarized in Table and Table, while the results for rats are summarized in Table and Table below.
A solution of about 500 mg/mL of the compound of Formula (Ia) having 14.06 w/w % water, 30.12 w/w % PEG 300, […] of a sodium salt of a compound of Formula (Ia), 5.00 w/w % ethanol, and 6.40 w/w % poloxamer 188 was prepared. The solution was administered subcutaneously to male beagle dogs at a dose level of about 12 mg/kg and male Wistar Han rats at a dose level of about 50 mg/kg. The pharmacokinetic profiles were determined, and the results for dogs are summarized in Table and Table, while the results for rats are summarized in Table and Table below.
A solution of about 300 mg/mL of the compound of Formula (Ia) having 23.33 w/w % water, 48.99 w/w % PEG 300, 26.47 w/w % of a sodium salt of a compound of Formula (Ia), and 1.21 w/w % poloxamer 188 was prepared. The solution was administered subcutaneously to male beagle dogs at a dose level of about 6 mg/kg and male Wistar Han rats at a dose level of about 50 mg/kg. The pharmacokinetic profiles were determined, and the results for dogs are summarized in Table and Table, while the results for rats are summarized in Table and Table below.
A solution of about 400 mg/mL of the compound of Formula (Ia) having 18.80 w/w % water, 40.25 w/w % PEG 300, 34.38 w/w % of a sodium salt of a compound of Formula (Ia), 5.00 w/w % ethanol, and 1.57 w/w % poloxamer 188 was prepared. The solution was administered subcutaneously to male beagle dogs at a dose level of about 12 mg/kg and male Wistar Han rats at a dose level of about 50 mg/kg. The pharmacokinetic profiles were determined, and the results for dogs are summarized in Table and Table, while the results for rats are summarized in Table and Table below.
A solution of about 500 mg/mL of the compound of Formula (Ia) having 16.29 w/w % water, 34.88 w/w % PEG 300, 41.92 w/w % of a sodium salt of a compound of Formula (Ia), 5.00 w/w % ethanol, and 1.91 w/w % poloxamer 188 was prepared. The solution was administered subcutaneously to male beagle dogs at a dose level of about 12 mg/kg and male Wistar Han rats at a dose level of about 50 mg/kg. The pharmacokinetic profiles were determined, and the results for dogs are summarized in Table and Table, while the results for rats are summarized in Table and Table below.
A solution of about 400 mg/mL of the compound of Formula (Ia) having 20.90 w/w % water, 44.72 w/w % PEG 300, and 34.38 w/w % of a sodium salt of a compound of Formula (Ia) was prepared. The solution was administered subcutaneously to male beagle dogs at a dose level of about 12 mg/kg and male Wistar Han rats at a dose level of about 50 mg/kg. The pharmacokinetic profiles were determined, and the results for dogs are summarized in Table and Table, while the results for rats are summarized in Table and Table below.
A solution of about 400 mg/mL of the compound of Formula (Ia) having 19.90 w/w % water, 42.59 w/w % PEG 300, 34.38 w/w % of a sodium salt of a compound of Formula (Ia), and 3.13 w/w % poloxamer 188 was prepared. The solution was administered subcutaneously to male beagle dogs at a dose level of about 12 mg/kg and male Wistar Han rats at a dose level of about 50 mg/kg. […]

[1] = 12 mg/kg, mean, n = 3 dogs, SC 12 mg/kg, solution T, 400 mg/mL
[2] = 12 mg/kg, mean, n = 3 dogs, SC 12 mg/kg, solution U, 500 mg/mL
[3] = 12 mg/kg, individual dogs, SC 12 mg/kg, solution T, 400 mg/mL
[4] = 12 mg/kg, individual dogs, SC 12 mg/kg, solution U, 500 mg/mL
[5] = 12 mg/kg, beagle dogs, SC 12 mg/kg, 400 mg/mL solution AA (6.25% poloxamer 188), Mean n = 3
[6] = 12 mg/kg, beagle dogs, SC 12 mg/kg, 400 mg/mL solution AA (6.25% poloxamer 188), animals #1-#3
[7] = 12 mg/kg, beagle dogs, SC 12 mg/kg, 400 mg/mL solution W (5.00% ethanol, 1.57% poloxamer 188), Mean n = 3
[8] = 12 mg/kg, beagle dogs, SC 12 mg/kg, 400 mg/mL solution W (5.00% ethanol, 1.57% poloxamer 188), animals #1-#3

Compound: CC(C)(C#Cc1ccc(-c2ccc(Cl)c3c(NS(C)(=O)=O)nn(CC(F)(F)F)c23)c([C@H](Cc2cc(F)cc(F)c2)NC(=O)Cn2nc(C(F)(F)F)c3c2C(F)(F)[C@@H]2C[C@H]32)n1)S(C)(=O)=O [compound of Formula (Ia)]
- AUC(0-t) (n = 3 dogs, read-out: AUC0-2016 h): 107 ± 12 µM·h
- AUC(0-t) (n = 3 dogs, read-out: AUC0-2253 h): 109 ± 12 µM·h
- AUC(0-t) (n = 3 dogs, read-out: AUC0-2688 h): 110 ± 12 µM·h
- AUC(0-t) (n = 3 dogs, read-out: AUC0-3024 h): 111 ± 13 µM·h
- AUC(0-t) (n = 3 dogs, read-out: AUC0-4032 h): 112 ± 13 µM·h
- AUC(0-t) (n = 3 dogs, read-out: AUC0-4368 h): 112 ± 13 µM·h
- concentration at 1 h [1]: 6.07 nM
- concentration at 1 h [2]: 5.59 nM
- concentration at 3 h [1]: 18.1 nM
- concentration at 3 h [2]: 22 nM
- concentration at 8 h [3]: 83.9 nM
- concentration at 8 h [1]: 72.9 nM
- concentration at 8 h [2]: 61.2 nM
- concentration at 24 h [3]: 233 nM
- concentration at 24 h [1]: 224 nM
- concentration at 24 h [2]: 134 nM
- concentration at 48 h [4]: 72.8 nM
- concentration at 48 h [1]: 241 nM
- concentration at 48 h [2]: 87.2 nM
- concentration at 72 h [4]: 49.4 nM
- concentration at 72 h [1]: 223 nM
- concentration at 72 h [2]: 58.6 nM
- concentration at 96 h [4]: 49 nM
- concentration at 96 h [1]: 232 nM
- concentration at 96 h [2]: 52.4 nM
- concentration at 168 h [1]: 221 nM
- concentration at 168 h [2]: 97.5 nM
- concentration at 336 h [3]: 179 nM
- concentration at 336 h [4]: 114 nM
- concentration at 336 h [1]: 261 nM
- concentration at 336 h [2]: 152 nM
- concentration at 504 h [3]: 286 nM
- concentration at 504 h [4]: 151 nM
- concentration at 504 h [1]: 238 nM
- concentration at 504 h [2]: 149 nM
- concentration at 672 h [3]: 150 nM
- concentration at 672 h [1]: 116 nM
- concentration at 672 h [2]: 81.9 nM
- concentration at 840 h [1]: 90.8 nM
- concentration at 840 h [2]: 72.6 nM
- concentration at 1008 h [3]: 75.5 nM
- concentration at 1008 h [1]: 73.6 nM
- concentration at 1008 h [2]: 58.3 nM
- concentration at 1344 h [3]: 42.5 nM
- concentration at 1344 h [4]: 43.3 nM
- concentration at 1344 h [1]: 36.2 nM
- concentration at 1344 h [2]: 34.8 nM
- concentration at 1680 h [3]: 19.9 nM
- concentration at 1680 h [1]: 23.9 nM
- concentration at 1680 h [2]: 21.3 nM
- concentration at 2016 h [1]: 11.8 nM
- concentration at 2016 h [2]: 10.3 nM
- concentration at 2352 h [3]: 4.8 nM
- concentration at 2352 h [1]: 6 nM
- concentration at 2352 h [2]: 7.5 nM
- concentration at 1 h [5]: 4 nM
- concentration at 3 h [5]: 13.8 nM
- concentration at 8 h [5]: 42.3 nM
- concentration at 24 h [5]: 134 nM
- concentration at 24 h [6]: 118 nM
- concentration at 48 h [5]: 148 nM
- concentration at 48 h [6]: 102 nM
- concentration at 72 h [5]: 135 nM
- concentration at 96 h [5]: 180 nM
- concentration at 96 h [6]: 140 nM
- concentration at 168 h [5]: 101 nM
- concentration at 168 h [6]: 106 nM
- concentration at 336 h [5]: 185 nM
- concentration at 336 h [6]: 204 nM
- concentration at 504 h [5]: 182 nM
- concentration at 672 h [5]: 183 nM
- concentration at 672 h [6]: 157 nM
- concentration at 840 h [5]: 109 nM
- concentration at 840 h [6]: 103 nM
- concentration at 1008 h [5]: 85.4 nM
- concentration at 1008 h [6]: 77.6 nM
- concentration at 1334 h [5]: 47.6 nM
- concentration at 1334 h [6]: 35.8 nM
- concentration at 1680 h [5]: 28 nM
- concentration at 1680 h [6]: 24 nM
- concentration at 2016 h [5]: 15.4 nM
- concentration at 2016 h [6]: 10.2 nM
- concentration at 2352 h [5]: 10.5 nM
- concentration at 2688 h (12 mg/kg, beagle dogs, SC 12 mg/kg, 400 mg/mL solution AA (6.25% poloxamer 188), 2688 h, Mean n = 3): 5.47 nM
- concentration at 3024 h (12 mg/kg, beagle dogs, SC 12 mg/kg, 400 mg/mL solution AA (6.25% poloxamer 188), 3024 h, Mean n = 3): 3.54 nM
- concentration at 3360 h (12 mg/kg, beagle dogs, SC 12 mg/kg, 400 mg/mL solution AA (6.25% poloxamer 188), 3360 h, Mean n = 3): 1.97 nM
- concentration at 3696 h (12 mg/kg, beagle dogs, SC 12 mg/kg, 400 mg/mL solution AA (6.25% poloxamer 188), Mean): 1.56 nM
- concentration at 3696 h [6]: 1.63 nM
- concentration at 3 h [7]: 3.84 nM
- concentration at 3 h [8]: 3.45 nM
- concentration at 8 h [7]: 18 nM
- concentration at 24 h [7]: 37.8 nM
- concentration at 24 h [8]: 35.4 nM
- concentration at 48 h [7]: 48.2 nM
- concentration at 72 h [7]: 48.6 nM
